Molecules are shown by their SMILES. Bounds are passed on as bounds.

T1 sequence (P22303 whole entry): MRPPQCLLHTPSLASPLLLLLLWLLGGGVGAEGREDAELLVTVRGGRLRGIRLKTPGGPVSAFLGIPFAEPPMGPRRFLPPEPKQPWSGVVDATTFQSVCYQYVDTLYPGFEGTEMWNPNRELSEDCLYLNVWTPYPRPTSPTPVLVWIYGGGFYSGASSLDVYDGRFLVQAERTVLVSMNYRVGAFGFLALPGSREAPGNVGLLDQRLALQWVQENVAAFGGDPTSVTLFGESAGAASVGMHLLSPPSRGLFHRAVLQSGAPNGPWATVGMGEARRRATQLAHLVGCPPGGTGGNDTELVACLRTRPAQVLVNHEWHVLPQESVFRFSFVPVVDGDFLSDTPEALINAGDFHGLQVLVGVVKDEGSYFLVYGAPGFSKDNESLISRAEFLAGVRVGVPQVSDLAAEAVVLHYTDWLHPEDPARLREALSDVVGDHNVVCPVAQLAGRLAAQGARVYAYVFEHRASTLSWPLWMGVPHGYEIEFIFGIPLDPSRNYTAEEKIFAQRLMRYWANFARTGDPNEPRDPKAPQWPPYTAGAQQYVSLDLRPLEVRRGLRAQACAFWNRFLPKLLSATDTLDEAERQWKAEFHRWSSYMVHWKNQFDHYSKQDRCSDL

The first assay concerns the target T1, Acetylcholinesterase (Homo sapiens, UniProt P22303). The assay can be described thus: Inhibitory activity against of human erythrocyte acetylcholinesterase.
As usually defined, the IC50 is the concentration needed to halve the response being measured. The low end stands for greater potency, the high end for weaker potency. Turning to `NC1=C2CCCCC2=NC2CCCCC12` (stereo not given), the IC50 was 363 nM.

For a further assay, the target named is T1, Acetylcholinesterase.
Description: In vitro inhibitory activity against human erythrocyte acetylcholinesterase
On to `Nc1c2c(nc3cccc(F)c13)C1CC(C2)C1`, for which the IC50 is 28.8 nM.
`Nc1c2c(nc3ccc(O)cc13)CCCC2` had an IC50 of 162 nM.

In another assay the target is T2, Acetylcholinesterase (Bos taurus, UniProt P23795).
T2 sequence (P23795 whole entry): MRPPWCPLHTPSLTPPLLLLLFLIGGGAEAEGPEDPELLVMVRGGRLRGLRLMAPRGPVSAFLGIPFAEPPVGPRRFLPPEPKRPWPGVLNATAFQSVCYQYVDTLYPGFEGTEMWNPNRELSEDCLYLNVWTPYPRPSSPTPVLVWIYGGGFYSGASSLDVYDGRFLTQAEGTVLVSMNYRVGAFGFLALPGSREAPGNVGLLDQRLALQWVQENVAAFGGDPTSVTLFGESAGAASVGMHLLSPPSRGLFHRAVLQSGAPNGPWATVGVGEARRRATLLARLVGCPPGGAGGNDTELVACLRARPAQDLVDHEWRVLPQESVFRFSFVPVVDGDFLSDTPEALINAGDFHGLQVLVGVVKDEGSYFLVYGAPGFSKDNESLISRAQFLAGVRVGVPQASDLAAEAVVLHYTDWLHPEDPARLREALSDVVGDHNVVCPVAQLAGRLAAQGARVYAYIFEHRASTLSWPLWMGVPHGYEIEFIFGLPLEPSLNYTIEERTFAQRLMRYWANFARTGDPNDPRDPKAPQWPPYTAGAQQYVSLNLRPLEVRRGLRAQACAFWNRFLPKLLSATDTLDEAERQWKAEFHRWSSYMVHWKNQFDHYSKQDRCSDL
Description: In vitro inhibitory activity against bovine acetylcholinesterase
`CCC1=CC2Cc3nc4cc(Cl)ccc4c(N)c3C(C1)C2` (stereo not given) gave an IC50 of 1.29 nM.

The target in another assay is T1, Acetylcholinesterase. The source holds these as a separate data set.
Description: Inhibitory activity against human erythrocyte acetylcholinesterase
In the case of `C=C1c2cc(Cl)ccc2N=C2CCCCCN12`, the IC50 is 501 nM.
Consider `Nc1c2c(nc3cccc(F)c13)CCCC2`, for which the IC50 is 79.4 nM.
Compound `C=C1c2ccc(Cl)cc2N=C2CCCCCN12` gave an IC50 of 158 nM.
In turn, `C=C1c2cccc(Cl)c2N=C2CCCCCN12` showed an IC50 of 1510 nM.
For `Nc1c2c(nc3ccc(Cl)cc13)OCCC2`, half-maximal inhibition (IC50) was put at 10000 nM.
`O=c1c2ccc(Cl)cc2nc2n1CCCCC2`: the IC50 was > 100000 nM.
Turning to `S=c1c2ccc(Cl)cc2nc2n1CCCCC2`, the IC50 is > 100000 nM.
Take `C=C1c2ccccc2N=C2CCCCCN12`: the IC50 was 3720 nM.
The same measure, in the same setting: to `Nc1c2c(nc3cnccc13)OCCC2` belongs 41700 nM.
The same measure, in the same setting: to `C=C1c2c(Cl)cccc2N=C2CCCCCN12` belongs 1700 nM; to `CCC1=CC2Cc3nc4cc(Cl)ccc4c(N)c3C(C1)C2` (stereo not given), 0.324 nM.

Values taken from ChEMBL document CHEMBL1138734, “Modulation of binding strength in several classes of active site inhibitors of acetylcholinesterase studied by comparative binding energy analysis” (J Med Chem, 2004).
